# Experimental data reported in ChEMBL document CHEMBL1201862, “PubChem BioAssay data set” (2004).
#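 Tested at 5 concentrations; 48 h exposure; 96-well plates; endpoints linearly interpolated, else capped at highest concentration. GI50 = concentration required for 50% inhibition of growth.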 Active and inactive are the calls of the source. No stated cut-off is given here; in the data, active = GI50 up to about 1.1 µM and inactive = higher.
# How the values were obtained:
# Test in all cases: NCI tumour cell line growth inhibition, 48 h
# [1] = system: A549
# [2] = system: ACHN
# [3] = system: CCRF-CEM
# [4] = system: EKVX
# [5] = system: HCC 2998
# [6] = system: HCT-116
# [7] = system: HT-29
# [8] = system: IGROV-1
# [9] = system: KM12
# [10] = system: LOX IMVI
# [11] = system: Malme-3M
# [12] = system: NCI-H522
# [13] = system: OVCAR-3
# [14] = system: OVCAR-5
# [15] = system: SF-268
# [16] = system: SF-295
# [17] = system: SF-539
# [18] = system: SK-MEL-2
# [19] = system: SN12C
# [20] = system: UACC-257
Compound,GI50 [1],GI50 [2],GI50 [3],GI50 [4],GI50 [5],GI50 [6],GI50 [7],GI50 [8],GI50 [9],GI50 [10],GI50 [11],GI50 [12],GI50 [13],GI50 [14],GI50 [15],GI50 [16],GI50 [17],GI50 [18],GI50 [19],GI50 [20]
CC(C)(C)CI,25.6 µM (inactive),20.7 µM (inactive),21.4 µM (inactive),61.5 µM (inactive),19.4 µM (inactive),18.5 µM (inactive),> 10 µM (inactive),> 100 µM (inactive),25.7 µM (inactive),17.3 µM (inactive),19.7 µM (inactive),17.5 µM (inactive),19.1 µM (inactive),32.2 µM (inactive),33.7 µM (inactive),18.5 µM (inactive),88.5 µM (inactive),19.8 µM (inactive),18.4 µM (inactive),21.2 µM (inactive)
CCCn1c(CN(Cc2nc3ccccc3n2CCC)Cc2nc3ccccc3n2CCC)nc2ccccc21,2.59 µM (inactive),2.11 µM (inactive),2.76 µM (inactive),0.966 µM (active),5.68 µM (inactive),1.74 µM (inactive),2.25 µM (inactive),1.94 µM (inactive),4.68 µM (inactive),3.7 µM (inactive),4.94 µM (inactive),4.63 µM (inactive),3.37 µM (inactive),6.07 µM (inactive),3.99 µM (inactive),8.55 µM (inactive),4.2 µM (inactive),5.69 µM (inactive),2.01 µM (inactive),7.36 µM (inactive)
